In patent publication US11440923B2, “Substituted macrocyclic indole derivatives” (Bayer Aktiengesellschaft, priority 2017, dated 2022):

How the values were obtained:
MCL-1 = MCL-1 (Homo sapiens (Human), UniProt Q07820, K194A/K197A/R201A); assay: Protein-protein interaction assay MCL-1/Noxa BH3 peptide (MCL-1 assay, TR-FRET); type: binding; conditions: MCL-1 Assay IC50 (median)
Outline: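 Competition TR-FRET with MBP-MCL-1 (aa 173-321) at 1 nM final and biotinylated Noxa BH3 peptide, pH 7 Tris buffer. Compounds pre-incubated 10 min at 22° C., then 1 h at 22° C. and overnight at 4° C. 665/620 nm ratio normalized to DMSO; IC50 from 4-parameter fit.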

SUDHL10 cells = assay: Induction of caspase-3/7 activity in SUDHL10 cells (Assay 4); type: cell-based; conditions: caspase-3/7 induction, 3 h; read-out: Caspase SUDHL10 EC50 (median)
Outline: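 Caspase-3/7 activity measured in DLBCL lines after 3 h compound exposure at 37 °C, following overnight plating; Caspase-Glo 3/7 luminescence read after 1 h at 37 °C. Medium-only background subtracted, values normalized to mean of DMSO-treated cells.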

SUDHL5 cells = assay: Antiproliferation assay SUDHL5 (Assay 7); type: cell-based; conditions: 72 h, CellTiter-Glo; read-out: Antiproli SUDHL5 IC50 (median)
Outline: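 Cells were plated overnight at 37° C, then compound-treated for 72 h. Viability was measured by CellTiter-Glo luminescence.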

Chain of MCL-1 (Q07820 whole entry, looked up, stated change not applied, the tested form may be a part): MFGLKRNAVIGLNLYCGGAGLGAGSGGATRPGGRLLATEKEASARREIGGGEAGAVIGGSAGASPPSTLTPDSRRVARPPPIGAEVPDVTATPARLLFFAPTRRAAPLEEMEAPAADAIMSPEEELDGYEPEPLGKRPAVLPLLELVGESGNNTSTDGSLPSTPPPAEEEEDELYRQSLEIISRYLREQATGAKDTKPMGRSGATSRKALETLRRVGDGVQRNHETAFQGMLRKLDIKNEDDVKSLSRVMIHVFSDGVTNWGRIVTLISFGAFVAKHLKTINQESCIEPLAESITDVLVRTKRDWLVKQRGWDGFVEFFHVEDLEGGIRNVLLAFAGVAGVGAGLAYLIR

Work on Cc1c2c(nn1C)C(CCN1CCOCC1)OCCCCn1c(C(=O)O)c(CCCOc3cccc4ccccc34)c3cccc-2c31 (single isomer, unassigned; stereoisomer 2) [Example 6, 2,3-dimethyl-15-[2-(morpholin-4-yl)ethyl]-7-[3-(naphthalen-1-yloxy)propyl]-2,10,11,12,13,15-hexahydropyrazolo[4′,3′:9,10][1,6]oxazacycloundecino[8,7,6-hi]indole-8-carboxylic Acid (Stereoisomer 2)] yielded an IC50 (MCL-1) of 0.051 µM, an EC50 (SUDHL10 cells) of 31 µM and an IC50 (SUDHL5 cells) of 8.2 µM.
